# Patent publication US6632921B1, “Seryl-lysyl-based peptide and peptidomimetic inhibitors of N-myristoyl transferase as anti-infective agents” (G. D Searle & Co, priority 1995, dated 2003)
# pEC50, pIC50: −log10 of the molar value. Where two headings read alike, the source gives them in different places.
# Key:
# [1] = test system: Candida albicans, strain B311; experiment: Antifungal susceptibility testing, microdilution broth, pH 5.4/30° C./YNB; type: cell-based; conditions: B311, 24 h
# Description: Antifungal Screens were set up initially against Candida albicans, strain B311, and Cryotococcus neoformans, strain L210425. Both pathogens, (originally from the stock culture collection, Medical mycology research center, Washington university-Barnes hospital), were obtained from Dr.Kobayashi, Prof.of infectious diseases, Washington University, St.Louis, Mo.
# All cultures are maintained at 30° C. on Sabouraud's dextrose agar slants and subcultured at monthly intervals to fresh medium. All inocula for susceptibility testing are prepared in yeast nitogen base(YNB, Difco) broth.
# A loopful of growth from Sabouraud dextrose agar slant is inoculated into 4 ml of YNB broth media and incubated at 30° C. overnight (18-24 hrs) with constant agitation (Gyratory Shaker, New Brunswick Scientific). Prior to setting up susceptibility testing, the organisms are counted in a hemocytometer, and diluted as needed into assay media.
# 1) (Assay at DH 5.4/30° C. Incubation/YNB Media).
# Antifungal assays were carried out initially by a modification of the method published by Jones, et. al; (1), and communicated to Searle by Dr. Kobayashi, Washington University. [R. N. Jones et al, Manual of Clinical Microbiology, 4th ed., (1985)]
# The antifungal susceptibility testing consists of a microdilution broth procedure performed in 96 well microtiter plates (Costar, cat#3799). Briefly, test compounds from a 20 mM stock solution in DMSO are diluted into sterile, deionized water (final DMSO concentration not exceeding 1%), to yield 2× the desired concentration (100 uM, 10 uM and 1 uM for an initial screen, or a selected concentration range in serial 2 fold dilutions for EC50 determination). One hundred microliters (100 ul) of each concentration is dispensed into triplicate wells of a 96 well microtiter plate. Appropriate dilutions of a suspension of C.albicans (1×10^6 cells/ml) in 2× YNB is distributed into each of the wells, including growth control wells containing no test compound as well as control wells with 0.5% DMSO. Amphotericin B at 0.05, 1 and 5 ug/ml is included in each assay plate as a positive control. The plates are incubated at 30° C. and cell growth is scored by reading the absorbance at 590 nm on an Elisa plate reader(Dynatech, MR.5000).
# Candida albicans NMT = target: T1, Candida albicans NMT (Candida albicans, UniProt P30418); experiment: NMT enzyme inhibition assay (radiochemical HPLC end-point), Candida NMT; type: biochemical; conditions: for pIC50: read-out: IC50 caNMT
# T1 construct: made in house; host or cells: E. coli
# T1 sequence (P30418 1-451): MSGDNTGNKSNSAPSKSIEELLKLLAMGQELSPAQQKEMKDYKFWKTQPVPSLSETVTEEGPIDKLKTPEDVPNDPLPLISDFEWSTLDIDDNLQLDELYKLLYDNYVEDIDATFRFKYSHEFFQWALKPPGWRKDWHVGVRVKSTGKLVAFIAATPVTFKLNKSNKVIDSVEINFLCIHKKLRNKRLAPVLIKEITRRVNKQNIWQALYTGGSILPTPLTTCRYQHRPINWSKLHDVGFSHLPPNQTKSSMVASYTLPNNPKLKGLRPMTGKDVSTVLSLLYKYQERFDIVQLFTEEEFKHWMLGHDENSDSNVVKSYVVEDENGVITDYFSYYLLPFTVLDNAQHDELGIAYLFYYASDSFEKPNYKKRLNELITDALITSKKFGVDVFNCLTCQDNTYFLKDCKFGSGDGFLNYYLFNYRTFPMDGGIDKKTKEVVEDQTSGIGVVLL
# Description: Recombinant Candida albicans and human NMTs were expressed and purified from E. coli using previously described protocols. [D. A. Towler et al, Proc. Natl. Acad. Sci. USA, 84, 2707-2712 (1987); R. C. Weigand et al, J. Biol. Chem., 267, 8591-8598 (1992); R. J. Duronio et al, Proc. Natl. Acad. Sci. USA, 89, 4129-4133 (1992)] The ability of compounds to inhibit Candida NMT enzymatic activity was assessed using a radiochemical HPLC end-point assay as described previously for Saccharomyces cerevisiae and human NMTs. [D. Towler et al, Proc. Natl. Acad. Sci. USA, 83, 2812-2816 (1986); W. J. Rocque et al, J. Biol. Chem., 268, 9964-9971 (1991)] The donor substrate [^3H]myristoyl-coenzyme A was enzymatically synthesized from [^3H]myristic acid (50 Ci/mmol, Amersham, Arlington Heights, Ill.) and coenzyme A (Fluka Chemical Corp., Ronkonkoma, N.Y.), and purified as described previously. [W. J. Rocque et al, J. Biol. Chem., 268, 9964-9971 (1991)] The peptide acceptor substrate GNAASARR-NH2 was prepared by solid-phase peptide synthesis using the t-Boc amino acid methodology, followed by HF treatment and reverse-phase HPLC purification. Inhibitor stock solutions were prepared at 22 mM in DMSO; the final concentration of DMSO in each assay was 0.5% (v/v). Inhibition assays were carried out by combining variable amounts of inhibitor or buffer with […] of [^3H]myristoyl-coenzyme A (1 μCi, 9.09 Ci/mmol) and 2.2 nmoles of GNAASARR-NH2 in a total volume of 60 μL of 0.2 M N-[2-hydroxy-ethyl]piperazine-N′-[2-ethanesulfonic acid], pH 7.4, 2 mM DL-dithiothreitol, 0.2 mM ethylene glycol-bis-(β-aminoethyl ether) N,N,N′,N′-tetraacetic acid, and initiating the reaction by the addition of 50 μL of a Candida NMT solution (7-12 ng/50 μL). Assays with human NMT were identical except that they used 60-75 ng/50 μL of enzyme solution and 0.22 nmoles of GNAASARR-NH2. The reaction was quenched after 10 minutes at 24° C. by the addition of ice-cold MeOH, and the reaction products were separated and measured using C4 reverse-phase HPLC (Vydac 214TP10415; Separations Group, Hesperia, Calif.) and in-line scintillation counting using a Radiomatic A250 (Packard Instruments, Downers Grove, Ill.) and Ecolite(+) (ICN Biomedical, Costa Mesa, Calif.) as the scintillant. Selectivity was determined by calculating the ratio of the IC50 against human NMT to the IC50 against C. albicans NMT.
# C.para. = experiment: Antifungal susceptibility testing, pH 5.4 assay, different strains of Candida; type: cell-based, C.parasilosis; conditions: 24 hr
# C.lusi. = experiment: as above; type: cell-based, C.lusitaniae; conditions: Clavispora lusitaniae, 24 hr
# [2] = pH 5.4, read-out: ACTIVITY (EC50) C.alb (B311)
Structure (SMILES),"pEC50 [1, 2]",pEC50 ([1]; read-out: caEC50 24 hours),pIC50 (Candida albicans NMT; Comparator Compound A table),inhibition of purified C. albicans Nmt in vitro (Candida albicans NMT; result in words),pEC50 (C.para.),pEC50 (C.lusi.),"pEC50 ([1]; pH 5.4, read-out: caEC50 24 hours)",pIC50 (Candida albicans NMT; Table V),Selectivity (Candida albicans NMT; ratio of IC50 against human NMT to IC50 against C. albicans NMT)
"Cc1nccn1CCCCc1ccc(CC(=O)N[C@H](CO)C(=O)N[C@H](CCCCN)C(=O)N[C@H](CC2CCCCC2)C(=O)O)cc1 [Comparator Compound A, D-Alanine, 3-cyclohexyl-N-[N^2-[N-[[4-[4-(2-methyl-1H-imidazol-1-yl)butyl]phenyl]acetyl]-D-seryl]-D-lysyl]-, bis-trifluoroacetate]",< 3.40,< 3.40,< 3.00,not an inhibitor,< 3.60,< 3.60,,,
"Cc1nccn1CCCCc1ccc(CC(=O)N[C@@H](CO)C(=O)N[C@@H](CCCCN)C(=O)N[C@@H](CC2CCCCC2)C(=O)O)cc1 [Example 2, L-Alanine, 3-cyclohexyl-N-[N^2-[N-[[4-[4-(2-Methyl-1H-imidazol-1-yl)butyl]phenyl]acetyl]-L-seryl]-L-lysyl]-, bis-trifluoroacetate]",4.46,,,,4.40,< 3.60,4.46,5.85,560
